Several values for one entry are separate records, joined by “and”; a condition that tells them apart may be missing. Identical values can stand only once. Each block holds one sequence with its values, some of them ahead of it.
Target: T1, MAL^TIR (Homo sapiens, UniProt P58753)
T1 construct: MAL (residues 79–221); 6xHis; made in house; host or cells: E. coli BL21 (DE3)
Experiment: T‐Surf phage library (P8 and P3) selection against MAL^TIR, four rounds, NGS read counts
Format: binding
Settings: for P3_MAL Rank (after) / P3_MAL Rank (before): P3 library; for P8_MAL Rank (after) / P8_MAL Rank (before): P8 library; for Population: 4th round of selection against MAL TIR, share of NGS reads
In short: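 Read counts come from NGS of phage pools enriched over four selection rounds on the plate‐coated TIR domain (5 µg mL^−1). Each round: 1 h phage binding at room temperature after 0.2% BSA blocking, Tween washes, acid elution, amplification in E. coli TG1 with M13KO7 helper.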

[1] = selection against MAL, rank after grouping
[2] = selection against MAL, rank before grouping
[3] = 4R selection against MAL, rank after grouping
[4] = 4R selection against MAL, rank before grouping
[5] = selection against MAL TIR, rank by count after grouping
[6] = selection against MAL TIR, rank by count before grouping
[7] = P8_MAL: rank by count after grouping
[8] = P8_MAL: rank by count before grouping
[9] = P3_MAL: rank by count after grouping
[10] = P3_MAL: rank by count before grouping
[11] = selection against MAL, rank by count after grouping
[12] = selection against MAL, rank by count before grouping
[13] = P8_MAL pool: P8 T-Surf phage library

T1 sequence (P58753 79-221): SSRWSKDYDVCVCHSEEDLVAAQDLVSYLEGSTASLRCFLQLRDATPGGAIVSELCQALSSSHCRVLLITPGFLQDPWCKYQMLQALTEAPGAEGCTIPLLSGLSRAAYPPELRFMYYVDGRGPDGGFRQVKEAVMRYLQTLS

P3_MAL Rank (after) [3]: 623
P3_MAL Rank (before) [4]: 2894
Sequence: HQALWALMWAKHQTPI

P3_MAL Rank (after) [5]: 254
P3_MAL Rank (before) [6]: 737
Sequence: YAFTGHLHRYLLQKM

P8_MAL Rank (after) [3]: 656
P8_MAL Rank (before) [4]: 1513
Sequence: YFLQFLVFRRLGNEYV

Rank (after) [9]: 465
Rank (before) [10]: 3483
Sequence: KCFWVTLLYALHRNPR

P3_MAL Rank (after) [3]: 644
P3_MAL Rank (before) [4]: 3576
Sequence: KEVEGWRDALTKAPI

P3_MAL Rank (after) [11]: 755
P3_MAL Rank (before) [12]: 2873
Sequence: HQAFWNRLWAKLKPP

P8_MAL Rank (after) [3]: 619
P8_MAL Rank (before) [4]: 1307
Sequence: WFYKPLVSLILRDTKA

P3_MAL Rank (after) [5]: 232
P3_MAL Rank (before) [6]: 3160
Sequence: SSFREGLWRLRGLSKK

P8_MAL Rank (after) [11]: 721
P8_MAL Rank (before) [12]: 2639
Sequence: TLLDHLCNELVQAGIH

P8_MAL Rank (after) [5]: 274
P8_MAL Rank (before) [6]: 1105
Sequence: LFYERLVSLMLRDTKG

Population [13]: 0.00402%
Sequence: WFYERLVSLILRDTKM

Rank (after) [9]: 129
Rank (before) [10]: 333
Sequence: RGFLSHLRYHLPAPQH

P8_MAL Rank (after) [11]: 704
P8_MAL Rank (before) [12]: 1698
Sequence: AFFWEQLRTALGNPTM

P3_MAL Rank (after) [1]: 540
P3_MAL Rank (before) [2]: 3318
Sequence: NLWRNALTVAANLSGW

P8_MAL Rank (after) [3]: 584
P8_MAL Rank (before) [4]: 2356
Sequence: QLIQQWIELQLRQLHL

Rank (after) [7]: 150
Rank (before) [8]: 1132
Sequence: WFYARLVSLLLRDTKV

Rank (after) [7]: 99
Rank (before) [8]: 718
Sequence: TFLAICIMRWCRRAF

P3_MAL Rank (after) [11]: 715
P3_MAL Rank (before) [12]: 1367
Sequence: YAFTGHLERHEVQRGV

P3_MAL Rank (after) [11]: 742
P3_MAL Rank (before) [12]: 1345
Sequence: YAFPFHLFSCPELRGV

Rank (after) [9]: 439
Rank (before) [10]: 1372
Sequence: YAFTGHLRRYLLRRSV

Rank (after) [9]: 468
Rank (before) [10]: 3252
Sequence: NGHGSAIIKEIVVTSW

Rank (after) [7]: 390
Rank (before) [8]: 1526
Sequence: YAASPWWFDELVKIVG

Rank (after) [7]: 414
Rank (before) [8]: 1587
Sequence: AFFCEQLRTVIGKPTI

More lines, now with the values behind:

Sequence: NQCTDALTAAVVLSGW
P3_MAL Rank (after) [1]: 528
P3_MAL Rank (before) [2]: 3330

Sequence: SFYEPQVKMVLRNTTM
P8_MAL Rank (after) [5]: 282
P8_MAL Rank (before) [6]: 1446

Sequence: YLKWGYPWFWIVCVL
Rank (after) [7]: 143
Rank (before) [8]: 1546

Sequence: YAFTGHLHRYLVQRFA
P3_MAL Rank (after) [1]: 514
P3_MAL Rank (before) [2]: 1393

Sequence: TFLIHQNNARMHANIL
P8_MAL Rank (after) [5]: 253
P8_MAL Rank (before) [6]: 2545

Sequence: QLIQQWSELHLHQLQL
Rank (after) [7]: 443
Rank (before) [8]: 2381

Sequence: LFFWEKLKSVLGNPTM
P8_MAL Rank (after) [11]: 693
P8_MAL Rank (before) [12]: 2067

Sequence: SSFREGLWRLLELRQK
P3_MAL Rank (after) [5]: 276
P3_MAL Rank (before) [6]: 3147

Sequence: PNLGTKTLNYLTRTKT
P3_MAL Rank (after) [11]: 730
P3_MAL Rank (before) [12]: 2666

Sequence: RKFVAYPFQALANKGI
P8_MAL Rank (after) [11]: 703
P8_MAL Rank (before) [12]: 2255

Sequence: YAFTGHLHRSLVQSGV
Rank (after) [9]: 154
Rank (before) [10]: 1381

Sequence: NQWRNALTAASNLSIW
Rank (after) [9]: 169
Rank (before) [10]: 3353

Sequence: PFFWEHLRHLLRSHTL
Rank (after) [7]: 480
Rank (before) [8]: 2325

Sequence: YAFTRHLHRYLVQSGV
Rank (after) [9]: 147
Rank (before) [10]: 1468

Sequence: AVLYTFLINLTHPTKF
Rank (after) [7]: 460
Rank (before) [8]: 1954

Sequence: LFFGASLKQLLRSDGR
P8_MAL Rank (after) [3]: 580
P8_MAL Rank (before) [4]: 2134

Sequence: AILYTFLINLTLPANF
P8_MAL Rank (after) [11]: 682
P8_MAL Rank (before) [12]: 1576

Sequence: WFYERPVSLILRDTIV
Rank (after) [7]: 153
Rank (before) [8]: 1256

Sequence: SLCKNLVTNLIEEFNR
Rank (after) [9]: 456
Rank (before) [10]: 3062

Sequence: NQCRNALTAAANLSGW
Population (P3_MAL pool: P3 T-Surf phage library): 0.00376%

Sequence: WFYERLVSLILRDTIV
Population [13]: 0.00309%

Sequence: WFYERLVCLILRDIKV
Rank (after) [7]: 465
Rank (before) [8]: 1171

Sequence: AFFWAQLKSVLGNPTM
Population [13]: 0.00371% and 0.00278%

Sequence: KIWGWRDALSRNPH
P3_MAL Rank (after) [11]: 762
P3_MAL Rank (before) [12]: 3640
